# Experimental data reported in patent US11129801B2 (SigmaThera SAS, priority 2016, dated 2021).
# Columns and labels:
# [1] = system: sigma-1R; details: cited from earlier work
# [2] = system: Aβ25-35 mouse model of Alzheimer's disease; assay: Spontaneous alternation in the Y-maze, Aβ25-35 mouse model; assay type: in vivo; details: for protection from injury produced by Aβ25-35 treatment, single agent: Experiment 4, i.p. day 1 to day 6, dose dependent; for highest sub-active dose, spontaneous alternation: Experiment 3, i.p.
# Procedure: (§1) The compound efficacy was evaluated 7 days after the peptide administration on the attenuation of the Aβ25-35-induced learning deficits (spatial working memory using the spontaneous alternation in the Y-maze test, and contextual long-term memory using the passive avoidance test).
# (§2) The mice were tested 7 days post injection or at the indicated time points.
# (§3) In Experiment 2, twelve mice per experimental group were administered Sc.Aβ or Aβ25-35-amyloid peptide on day 0 by i.c.v. injection. […] Animals were tested at day 7 and later.
# (§4) The synergy/additivity/antagonism was evaluated by calculating the combination index. […] Animals were then tested at day 7 and later.
# (§5) Animals were tested at day 7 and later.
# (§6) For each of Experiments 1-4, on day 7, all animals were tested for the spontaneous alternation performance in the Y-maze test, an index of spatial working memory. On day 8 and 9, the contextual long-term memory of the animals was assessed using the step-through type passive avoidance procedure. On day 9, immediately after the retention session, animals were sacrificed by decapitation and the hippocampus and cortex dissected out. Lipid peroxidation was analyzed in the hippocampus, whereas neuroinflammation, apoptosis, amyloid burden and hyperphosphorylation of tau protein were analyzed in cortex.
# The homogeneous oligomeric preparation of Aβ25-35 peptide was performed according to the AMYLGEN's own procedure. Each mouse was anesthetized with isoflurane 2.5% and injected i.c.v. with Aβ25-35 peptide (9 nmol/mouse) or Sc.Aβ peptide (9 nmol/mouse), in a final volume of 3 μl/mouse, according to the previously described method (Maurice T, et al. (1996). Brain Res. 706(2): 181-193, Maurice T, et al. (1998) Neuroscience 83(2): 413-428, Meunier J, et al. (2006) British J. Pharmacol. 149(8): 998-1012, Villard V, et al. (2009) Neuropsychopharmacology 34(6): 1552-1566, Villard V, et al. (2011) J. Pharmacol. Sci. 115(3): 279-292).
# Animals: Male Swiss mice, 6 weeks old and weighing 30-35 g, from JANVIER (Saint Berthevin, France), were kept for housing and experiments took place within the animal facility building of the University of Montpellier 2 (CECEMA, Office of Veterinary Services agreement #B-34-172-23). Animals were housed in groups with access to food and water ad libitum, except during behavioral experiments. They were kept in a temperature and humidity controlled animal facility on a 12 h/12 h light/dark cycle (lights off at 07:00 pm). Mice were numbered by marking their tail using permanent markers. All animal procedures were conducted in strict adherence to the European Union directive of Sep. 22, 2010 (2010/63/UE). Diagnostic summary reports of JANVIER were annexed to the study report.
# Spontaneous alternation performance: Immediate working memory performance was assessed by recording spontaneous alternation behavior during a single session in a Y-maze as described previously (Itoh J, et al. (1993) Eur J Pharmacol 236(3): 341-345; Hiramatsu M and Inoue K (1999) Br J Pharmacol 127(3): 655-660). The Y-maze is made of grey polyvinylchloride. Each arm of the Y-maze was 40 cm long, 3 cm wide, and 13 cm high at the bottom, 10 cm wide at the top, and converging at an equal angle. Each mouse was placed at the end of one arm and allowed to move freely through the maze during an 8 min session. The series of arm entries, including possible returns into the same arm, was checked visually. An alternation was defined as entries into all three arms on consecutive occasions. The number of maximum alternations is therefore the total number of arm entries minus two and the percentage of alternation was calculated as (actual alternations/maximum alternations)×100. Parameters included the percentage of alternation (memory index) and total number of arm entries (exploration index).
# [3] = system: Aβ25-35 mouse model of Alzheimer's disease; assay: Aβ25-35 mouse model, overall neuroprotection (summary statements); assay type: in vivo; details: versus usual doses; ibuprofen, atorvastatin after allometric scaling mouse to human
# Procedure: as §1, §2, §3, §4, §5, §6
# [4] = system: sigma-1 receptor / BiP complex; assay: Dissociation of BiP from sigma-1 receptor in CHO cells; assay type: cell-based; details: 10 μM NE100 with 10 μM igmesine
# Procedure: CHO cells were grown in a 6-well plates and treated with the compounds in culture medium at 37° C. for 30 min at 1 μM and 10 μM final concentration. The reaction was stopped by medium removal and adding 3 mL PBS at 37° C. CHO cells were harvested and suspended in 50 mM HEPES (pH7.4) followed by cross-linking with 50 μg/ml of dithio (bis) succinimidyl propionate (Thermo Fisher Scientific, Waltham, Mass.) for 30 min at 4° C. The reaction was stopped by adding Tris-HCl (pH 8.8, final 50 mM). Fifteen minutes after incubation on ice, cells were lysed with RIPA buffer [50 mM Tris (pH7.4), 150 mM NaCl, 1% Triton X-100, 0.3% sodium deoxycholate, 0.1% SDS, protease inhibitor cocktail (Roche Complete)]. After centrifugation at 12,000 g, 1 min, the supernatant was incubated overnight at 4° C. with Sig-1R antibody (Abcam). The cell lysate was incubated with Sepharose protein-A (Invitrogen) for 90 min. After centrifugation at 12,000 g, 1 min, the supernatant was discarded and the pellet was washed in 0.5 mL RIPA buffer. After a second centrifugation at 12,000 g, 20 min, the supernatant was discarded and the pellet was washed in 0.5 mL 2× Sample buffer/bMCE buffer. Following a third centrifugation at 12,000 g, 1 min, the supernatant was analysed by ELISA assay, according to the manufacturer's protocol (USCNK #SEC343Mu).
SMILES,"protection from injury produced by Aβ25-35 treatment, single agent [2]",lowering of the partner drug's dose when associated with igmesine [3] [fold],other results
"CCC(C/C=C/c1ccccc1)(c1ccccc1)N(C)CC1CC1 (stereo not shown) [JO-1783, reference compound]",–,–,potency relative to igmesine at the binding site [1]: ten times less potent
C#CCN(C)[C@H](C)Cc1ccccc1 [selegiline],able to protect,–,–
CC12CC3CC(C)(C1)CC(N)(C3)C2 [memantine],–,–,"highest sub-active dose, spontaneous alternation [2]: 0.5 mg/kg"
"CC(C)c1c(C(=O)Nc2ccccc2)c(-c2ccccc2)c(-c2ccc(F)cc2)n1CC[C@@H](O)C[C@@H](O)CC(=O)O [atorvastatin, reference compound]",able to protect,10,–
"CCCN(CCC)CCc1ccc(OC)c(OCCc2ccccc2)c1 [NE100, reference compound]",–,–,antagonism of igmesine-induced BiP dissociation [4]: prevented
"CC(C)Cc1ccc(C(C)C(=O)O)cc1 (stereo not shown) [ibuprofen, reference compound]",able to protect,3,–
"COc1cc2c(cc1OC)C(=O)C(CC1CCN(Cc3ccccc3)CC1)C2 (stereo not shown) [donepezil, reference compound]",–,4,"highest sub-active dose, spontaneous alternation [2]: 0.25 mg/kg"
